Reference: ChEMBL document CHEMBL3351680, “Structure-based design, synthesis and biological evaluation of novel β-secretase inhibitors containing a pyrazole or thiazole moiety as the P3 ligand” (Bioorg Med Chem Lett, 2015)

Target: Beta-secretase 1 (Homo sapiens, UniProt P56817)
Assay: Inhibition of recombinant BACE1 (unknown origin)

Chain of Beta-secretase 1 (P56817 whole entry): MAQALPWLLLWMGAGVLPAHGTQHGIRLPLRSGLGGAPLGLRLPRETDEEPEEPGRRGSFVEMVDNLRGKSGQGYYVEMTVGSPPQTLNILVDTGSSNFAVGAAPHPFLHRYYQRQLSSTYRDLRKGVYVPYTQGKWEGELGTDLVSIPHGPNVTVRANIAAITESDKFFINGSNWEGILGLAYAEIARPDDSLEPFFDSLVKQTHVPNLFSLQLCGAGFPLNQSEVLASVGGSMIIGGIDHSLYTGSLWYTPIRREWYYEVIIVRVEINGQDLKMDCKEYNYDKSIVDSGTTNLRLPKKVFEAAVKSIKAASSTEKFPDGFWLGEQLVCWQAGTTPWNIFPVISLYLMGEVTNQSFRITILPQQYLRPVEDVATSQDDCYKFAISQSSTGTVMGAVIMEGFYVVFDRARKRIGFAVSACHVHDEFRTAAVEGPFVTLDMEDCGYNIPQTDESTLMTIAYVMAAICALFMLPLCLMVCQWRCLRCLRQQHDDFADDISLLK

Row | Structure (SMILES) | Ki
1 | Cc1csc(C[C@H](C)C(=O)N[C@@H](CNC(=O)OC(C)(C)C)C(=O)N[C@@H](CC(C)C)[C@@H](O)C[C@@H](C)C(=O)N[C@H](C(=O)NCC(C)C)C(C)C)n1 | 0.25 nM
2 | Cc1cc(C)n(C[C@@H](C(=O)N[C@@H](CNC(=O)OC(C)(C)C)C(=O)N[C@@H](CC(C)C)[C@@H](O)C[C@@H](C)C(=O)N[C@H](C(=O)NCC(C)C)C(C)C)C(C)C)n1 | 471 nM
3 | Cc1cc(C)n(C[C@H](CC(C)C)C(=O)N[C@@H](CNC(=O)OC(C)(C)C)C(=O)N[C@@H](CC(C)C)[C@@H](O)C[C@@H](C)C(=O)N[C@H](C(=O)NCC(C)C)C(C)C)n1 | 148 nM
4 | Cc1ccn(C[C@H](C)C(=O)N[C@@H](CNC(=O)OC(C)(C)C)C(=O)N[C@@H](CC(C)C)[C@@H](O)C[C@@H](C)C(=O)N[C@H](C(=O)NCC(C)C)C(C)C)n1 | 201 nM
5 | Cc1cc(C)n(C[C@H](C)C(=O)N[C@@H](CS(C)(=O)=O)C(=O)N[C@@H](CC(C)C)[C@@H](O)C[C@@H](C)C(=O)N[C@H](C(=O)NCC(C)C)C(C)C)n1 | 192 nM
6 | CC[C@@H](Cc1nc(C)cs1)C(=O)N[C@@H](CNC(=O)OC(C)(C)C)C(=O)N[C@@H](CC(C)C)[C@@H](O)C[C@@H](C)C(=O)N[C@H](C(=O)NCC(C)C)C(C)C | 10.8 nM
7 | Cc1csc(C[C@@H](C(=O)N[C@@H](CNC(=O)OC(C)(C)C)C(=O)N[C@@H](CC(C)C)[C@@H](O)C[C@@H](C)C(=O)N[C@H](C(=O)NCC(C)C)C(C)C)C(C)C)n1 | 28.9 nM

Second part, the compound after the results:

Row | Ki | Structure (SMILES)
8 | 63.1 nM | CC[C@@H](Cn1nc(C)cc1C)C(=O)N[C@@H](CNC(=O)OC(C)(C)C)C(=O)N[C@@H](CC(C)C)[C@@H](O)C[C@@H](C)C(=O)N[C@H](C(=O)NCC(C)C)C(C)C
9 | 64.2 nM | CSC[C@H](NC(=O)[C@@H](C)Cn1nc(C)cc1C)C(=O)N[C@@H](CC(C)C)[C@@H](O)C[C@@H](C)C(=O)N[C@H](C(=O)NCC(C)C)C(C)C
10 | 31.9 nM | Cc1nc(C[C@H](C)C(=O)N[C@@H](CNC(=O)OC(C)(C)C)C(=O)N[C@@H](CC(C)C)[C@@H](O)C[C@@H](C)C(=O)N[C@H](C(=O)NCC(C)C)C(C)C)cs1
11 | 16.8 nM | CC[C@@H](Cc1csc(C)n1)C(=O)N[C@@H](CNC(=O)OC(C)(C)C)C(=O)N[C@@H](CC(C)C)[C@@H](O)C[C@@H](C)C(=O)N[C@H](C(=O)NCC(C)C)C(C)C

Target: T1, Beta-secretase 2 (Homo sapiens, UniProt Q9Y5Z0)
T1 sequence (Q9Y5Z0 whole entry): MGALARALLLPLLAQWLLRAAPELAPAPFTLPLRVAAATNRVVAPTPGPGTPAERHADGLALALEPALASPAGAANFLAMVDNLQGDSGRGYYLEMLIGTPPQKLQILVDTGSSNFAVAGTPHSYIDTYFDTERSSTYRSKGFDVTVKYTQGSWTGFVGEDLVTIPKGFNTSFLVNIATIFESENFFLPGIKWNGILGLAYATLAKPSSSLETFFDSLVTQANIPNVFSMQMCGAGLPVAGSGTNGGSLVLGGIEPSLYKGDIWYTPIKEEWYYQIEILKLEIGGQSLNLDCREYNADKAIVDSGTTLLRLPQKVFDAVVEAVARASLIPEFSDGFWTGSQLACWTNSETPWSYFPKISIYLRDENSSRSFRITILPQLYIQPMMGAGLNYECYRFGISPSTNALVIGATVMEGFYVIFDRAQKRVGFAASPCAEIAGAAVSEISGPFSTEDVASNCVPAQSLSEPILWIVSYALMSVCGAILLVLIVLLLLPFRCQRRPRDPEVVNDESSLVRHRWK
Assay: Inhibition of memapsin 1 (unknown origin)

Row | Structure (SMILES) | Ki
12 | Cc1csc(C[C@H](C)C(=O)N[C@@H](CNC(=O)OC(C)(C)C)C(=O)N[C@@H](CC(C)C)[C@@H](O)C[C@@H](C)C(=O)N[C@H](C(=O)NCC(C)C)C(C)C)n1 | 71 nM

Target: Cathepsin D (Homo sapiens, UniProt P07339)
Sequence (P07339 65-162 limits assumed): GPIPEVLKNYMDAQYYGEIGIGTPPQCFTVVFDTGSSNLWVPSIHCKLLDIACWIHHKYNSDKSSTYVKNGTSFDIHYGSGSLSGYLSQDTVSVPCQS
Sequence (P07339 169-412 limits assumed): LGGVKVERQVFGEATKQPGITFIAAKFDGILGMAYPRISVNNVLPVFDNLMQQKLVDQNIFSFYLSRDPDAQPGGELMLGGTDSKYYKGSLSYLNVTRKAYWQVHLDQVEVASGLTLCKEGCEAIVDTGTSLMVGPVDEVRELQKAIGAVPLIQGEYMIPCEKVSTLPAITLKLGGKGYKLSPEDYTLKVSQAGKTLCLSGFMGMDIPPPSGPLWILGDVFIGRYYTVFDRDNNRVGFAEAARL
Assay: Inhibition of Cathepsin D (unknown origin)

Row | Structure (SMILES) | Ki
13 | Cc1csc(C[C@H](C)C(=O)N[C@@H](CNC(=O)OC(C)(C)C)C(=O)N[C@@H](CC(C)C)[C@@H](O)C[C@@H](C)C(=O)N[C@H](C(=O)NCC(C)C)C(C)C)n1 | 1.25 nM
